{
  "source": "PubChem BioAssay AID2305",
  "about": "(GlaxoSmithKline (GSK), 2010)",
  "data": [
    {"tested_on": "P. falciparum 3D7 growth, pLDH absorbance", "assay": "P. falciparum 3D7 growth inhibition, dose response, strain 3D7 (AID 2305)", "units": {"IC50": "nM"}, "values": [
      {"smiles": "CC(=O)c1ccc(-c2ccc(C(=O)NCCCCN3CCC(c4ccc5c(c4OCC(N)=O)CCCC5)CC3)cc2)s1", "IC50": 890},
      {"smiles": "O=C(Nc1ccc(-c2nc3ccccc3[nH]2)cc1)c1cnc(Cl)c(Cl)c1", "IC50": 730},
      {"smiles": "COc1ccc(Nc2nccc(N3CCC(NC(=O)C(C)c4ccc(Cl)cc4)C3)n2)cc1", "note": "(stereo not drawn)", "IC50": 1010},
      {"smiles": "COc1ccc(C=NNc2cc(C)nc3ccccc23)c(OC)c1", "IC50": 620},
      {"smiles": "Cc1ccc(CNC(=O)[C@H](CCCN)Nc2cc(C)nc(Nc3ccccc3)n2)cc1", "IC50": 1290},
      {"smiles": "C=C(C)CSc1nc2c(c(=O)n1CCc1ccccc1)C1(CCCC1)Cc1ccccc1-2", "IC50": 610},
      {"smiles": "CCN(CC)C(=O)c1cccc(/C=C/c2ccc(-c3c(C)[nH]c(C)c(Cl)c3=O)cc2)c1", "IC50": 260},
      {"smiles": "c1cc(CN2CCN(c3ccncc3)CC2)cc(-c2cccc(-c3nc4ccccc4[nH]3)c2)c1", "IC50": 130},
      {"smiles": "Cc1ccc(NC(=O)c2cccc(CN3CCCN(Cc4cccc(O)c4)CC3)c2)cc1", "IC50": 1310},
      {"smiles": "O=C(Nc1cccc(-c2ccc(CN3CCCC3)cc2)c1)c1cccc(F)c1", "IC50": 780},
      {"smiles": "O=C(Nc1cccc(-c2nn3ccccc3c2-c2ccnc(Nc3ccc(Cc4ccncc4)cc3)n2)c1)c1c(F)cccc1F", "IC50": 300},
      {"smiles": "COc1ccc2[nH]cc(C3CCN(Cc4ccc(NC(=O)c5ccc(-c6ccccc6)cc5)cc4)CC3)c2c1", "IC50": 770},
      {"smiles": "CC[C@H]1CN2CC[C@@H]1C[C@H]2[C@H](O)c1cc(-c2ccc(Cl)c(Cl)c2)nc2ccc(O)cc12", "IC50": 260},
      {"smiles": "O=C(NCc1ccc(C(=O)N2CCC(N3CCCCC3)CC2)cc1)c1cc(-c2cccc(C(F)(F)F)c2)ccc1O", "IC50": 820},
      {"smiles": "Clc1ccccc1C=NNc1ccnc2ccccc12", "IC50": 850},
      {"smiles": "O=C(Nc1cccc(CN2CCN(Cc3cccc(O)c3)CC2)c1)c1ccc(Cl)c(Cl)c1", "IC50": 410},
      {"smiles": "CC1(C)N=C(N)N=C(N)N1OCCOc1ccc(Cc2ccccc2)cc1", "IC50": 40},
      {"smiles": "NC(N)=NC(=O)Nc1ccc([N+](=O)[O-])c(Cl)c1", "IC50": 880},
      {"smiles": "c1cnc2ccc(NCc3ccc(-c4ccc(CNC5CCCC5)cc4)cc3)cc2c1", "IC50": 870},
      {"smiles": "Fc1ccccc1C=NNc1ccnc2ccc(C(F)(F)F)cc12", "IC50": 870},
      {"smiles": "CC(C)(CNC(=O)[C@@H]1CCCN(Cc2ccc(Cl)cc2)C1)c1nc(-c2ccc(Cl)c(O)c2)c(-c2ccncc2)[nH]1", "IC50": 940},
      {"smiles": "O=c1cc(NC[C@H]2CCC[C@@H]2NCc2cc(Br)cc(Br)c2)[nH]c2ccccc12", "IC50": 680},
      {"smiles": "COc1ccc(-c2cccc(NC(=O)c3cccc(Cl)c3)c2)cc1CNC(C)C", "IC50": 720},
      {"smiles": "Cc1cc2ccccc2c(CON2C(N)=NC(N)=NC2(C)C)c1C", "IC50": 10},
      {"smiles": "Fc1ccc2nc(-c3cccc(-c4ccc(CN5CCCCC5)cc4)c3)[nH]c2c1", "IC50": 160},
      {"smiles": "Nc1cccc(CNCc2cccc(-c3ccc(-c4nc5ccccc5[nH]4)cc3)c2)c1", "IC50": 420},
      {"smiles": "CC(C)C[C@H](NC(=O)OC(C)(C)C)C(=O)Nc1ccc(Cc2ccc(NC(=O)[C@H](CC(C)C)NC(=O)OC(C)(C)C)cc2)cc1", "IC50": 760},
      {"smiles": "CC1(C)N=C(N)N=C(N)C1c1ccc(Cl)cc1", "note": "(stereo not drawn)", "IC50": 260},
      {"smiles": "O=C(/C=C/c1ccc(C(F)(F)F)cc1)NCCCCCN1CCCN(C(=O)Nc2ccc(F)c(Cl)c2)CC1", "IC50": 370},
      {"smiles": "CC(C)C[C@@H]1C(=O)N[C@H](C2Cc3ccccc3C2)C(=O)N1[C@@H](C(=O)O)c1ccc(F)cc1F", "IC50": 840},
      {"smiles": "Cc1ccc(NC(=O)c2ccc3ncccc3c2)cc1OC1CCN(Cc2ccsc2)CC1", "IC50": 930},
      {"smiles": "N#Cc1cc([N+](=O)[O-])ccc1-n1nc(-c2cccc(Cl)c2)n(CC2CCCO2)c1=S", "note": "(stereo not drawn)", "IC50": 910},
      {"smiles": "O=C(Nc1cc(C(F)(F)F)cc(C(F)(F)F)c1)NC(CCCN1CCC2(CC1)OCc1ccccc12)c1ccc(Cl)c(Cl)c1", "note": "(stereo not drawn)", "IC50": 820},
      {"smiles": "c1ccc(Oc2ccc(Nc3ccnc4cc(-c5ccc(CNCCN6CCOCC6)o5)ccc34)cc2)nc1", "IC50": 1440},
      {"smiles": "Cc1[nH]c2ccc(-c3ccc(N(C)C)cc3)cc2c(=O)c1Cl", "IC50": 720},
      {"smiles": "CCOC(=O)c1c(C)n(-c2ccccc2)c2ccc(O)cc12", "IC50": 470},
      {"smiles": "NC(N)=Nc1nc(-c2cccc(NC(=O)CCCCCCCON3C(N)=NC(N)=NC34CCCCC4)c2)cs1", "IC50": 40},
      {"smiles": "O=C(NCc1ccc(Cl)c(Cl)c1)[C@H]1CNCCN1C(=O)c1ccccc1", "IC50": 950},
      {"smiles": "CN(C)Cc1ccc2cc(NC(=O)c3ccc(-c4ccc(Cl)cc4)cc3)ccc2c1", "IC50": 1340},
      {"smiles": "CCCCCCN1CCC(CNCc2cccc([N+](=O)[O-])c2)CC1", "IC50": 720},
      {"smiles": "CCOc1cc(C(=O)NCCCN2CCCCC2C)ccc1-c1nc2ccc(Cl)cc2[nH]1", "note": "(stereo not drawn)", "IC50": 1070},
      {"smiles": "Cc1ccccc1CNc1noc(-c2sccc2Br)n1", "IC50": 380},
      {"smiles": "CCOC(=O)C(Oc1ccc2ccccc2c1)C(=O)OCC", "IC50": 760},
      {"smiles": "O=C(C=Cc1ccc(Cl)c(Cl)c1)NCCCCCN1CCCC(CCCNC(=O)[C@@H]2C[C@H]2c2ccccc2)C1", "note": "(stereo partly drawn)", "IC50": 1130},
      {"smiles": "O=C(O)CCSc1ncnc2nc[nH]c12", "IC50": 130},
      {"smiles": "Cc1[nH]nc2cc(Nc3ccnc(Nc4cccc(CN5CCOCC5)c4)n3)ccc12", "IC50": 1580},
      {"smiles": "CNC(=O)NC1=NC(C)(C)N(OCc2ccc(Cl)c(Cl)c2)C(NC(=O)NC)=N1", "IC50": 600},
      {"smiles": "NC(=O)c1cc2nc(Nc3ccc(F)cc3)nc(NC3CCC3)c2[nH]1", "IC50": 200}
    ]}
  ]
}
